Molecules are shown by their SMILES.

The values below come from patent US5525595A, “3- or 4-glycosyloxybenzopyran derivative and antiallergic agent containing the derivative as active ingredient” (priority 1993, dated 1996).

The subject of experiment [1] is homologous passive cutaneous anaphylaxis (PCA) reaction. Put plainly: Effect on homologous passive cutaneous anaphylaxis (PCA) reaction in rats. The format is in vivo, rats (Male wistar rats). The settings on record: for Inhibition (%) of PCA reaction, compared compounds: Comparative Test Example 1, Table 5, compared compounds of EP-A-0598117; for inhibition in vivo at 100 mg/kg: Rattus norvegicus, 0.5 h. The procedure:
This experimental animal model is caused by immediate type allergic reaction, namely, antigen-antibody reaction. In the following, the method of this pharmacological test will be explained.
Method: Male wistar rats (9 weeks old) were intradermally administered 0.05 ml of anti-serum against trinitrophenylated ascaris (TNP-As) into two sites on the shaved dorsal skin. 48 hours later, 3-glycosyloxybenzopyran derivatives and 4-glycosyloxybenzopyran derivatives (test compounds) suspended in 0.5% sodium carboxymethylcellulose (CMCNa) were given orally at a dose of 100 mg/kg to the animals. 1 hour after administration of Test compounds, the animals were induced anaphylaxis by injection of saline (1 ml) dissolving 5 mg of Evans Blue and 1 mg of TNP-As into the tail vein of the animals. 30 minutes after induction of anaphylaxis, animals were anesthetized by ether and killed by bleeding, and were flayed dorsal skin. The leakage of dye was assessed by measuring the diameter (mean of shortest and longest diameter) of the blue spot on the inside surface of dorsal skin. As vehicle control group, only 0.5% CMCNa solution was administered orally, and as positive control group, Tranilast suspended in 0.5% CMCNa were administered orally at a dose of 100 mg/kg to the animals with the same method as the test compounds groups. Each experimental group consisted of 5 rats. [formula] In equation 1: A: leakage of dye in vehicle control group
B: leakage of dye in test compound group or in positive control group
The anti-allergic activity of the compounds of the present invention were compared with that of analogous compounds which were published in the Patent (EP-A-0598117) by PCA reaction. This pharmacological test was performed according to the method described in Test Example 1.

Experiment [2] deals with contact dermatitis induced by picryl chloride. Put plainly: Effect on contact dermatitis induced by picryl chloride in mice (delayed type hypersensitization). It is filed as in vivo. The procedure:
The delayed type hypersensitization is inhibited by steroid, but can not be effected by known anti-allergic agents. In the following, the method of the pharmacological test will be explained.
Method: Mice, shaved their abdominal skin on previous day, were immunized by applying 0.1 ml of acetone containing 7 mg of picryl chloride to the skin of the abdomen. 7 days after immunization, the thickness of the ear was measured with a dial thickness gauge, then mice were challenged by painting 5 μl of 1% picryl chloride olive oil solution to each side skin of left ear. 24 hours after challenge, the thickness of the left ear was measured again and the increase (%) of thickness was calculated according to equation 2. The compounds of the present invention (test compounds) suspended in 0.5% CMCNa were forcibly administered orally at a dose of 100 mg/kg at 1 hour before and 16 hours after challenge. As vehicle control group, only 0.5% CMCNa solution were administered orally, and as positive control group, Prednisolone, steroid hormone, and Tranilast were administered orally at the doses of 10 mg/kg and 100 mg/kg, respectively.
Increase (%)=(A-B)/B×100 (Equation 2)
A: thickness of the ear at 24 hours after challenge
B: thickness of the ear before challenge
Inhibition(%)=(C-D)/C×100 (equation 3)
C: The increase (%) in vehicle control group
D: The increase (%) in test compounds group or positive control group

Experiment [3] concerns airway resistance in experimental asthma model. As to the kind of experiment: Effect on experimental asthma model in guinea pigs. The format is in vivo, guinea pigs (Male hadley). The settings on record: 100 mg/kg oral, OVA challenge, guinea pigs, Table 7; for inhibition in vivo at 100 mg/kg: Cavia porcellus. As to the method:
The asthma is typical allergic disease and we carried out this pharmacological test by well known experimental asthma model in guinea pigs in order to confirm that the compounds of the present invention suppress the asthma. In the following, the method of the pharmacological test will be explained.
Method: Male hadley guinea pigs were immunized by intraperitoneal injection of saline (1 ml) containing 5 mg of ovalbumine (OVA) three times at interval of one week. 2 weeks after final immunization, the animals were challenged by inhalation of 1% OVA-saline solution for 1 minute and then the airway resistance of the animals were measured for 30 minutes with PULMOS-1 (Medical Interface Project Station Inc.) after the inhalation. The compounds of the present invention (test compounds) suspended in 0.5% CMCNa were given orally at a dose of 100 mg/kg. As positive control group, Disodium Cromoglicate (DSCG), well known anti-allergic agent, in saline were injected at a dose of 20 mg/kg into the vein of the animals. As vehicle control group, only 0.5% CMCNa solution were given orally. The inhibition (%) of the airway resistance in vehicle control group was calculated according to equation 5 and the result was shown in Table 7. Each experimental group consisted of 5 guinea pigs. [formula] In equation 5: A: Maximum airway resistance in vehicle control group
B: Maximum airway resistance in test compounds group or positive control group

Where [4] appears, read: 100 mg/kg oral, 1 hour before antigen, rats, Table 3.
The mark [5] stands for this setting: Mus musculus, 100 mg/kg oral, ear thickness 24 hours after challenge, Table 6, read-out: Inhibition (%) against the increase of ear thickness.

`COc1ccc2c(O)c(OC)c(=O)oc2c1` [Compared compound 1, 4-hydroxy-3,7-dimethoxy-2H-1-benzopyran-2-one, reference compound]: the “Inhibition (%) of PCA reaction, compared compounds” value (“Inhibition (%) … compared compounds” for short) in experiment [1] is given as 28.9%.

On to `CCCCCCCCOc1ccc2c(O)c(OC)c(=O)oc2c1` [Compared compound 2, 3-methoxy-4-hydroxy-7-octyloxy-2H-1-benzopyran-2-one, reference compound], for which, in experiment [1], the “Inhibition (%) … compared compounds” value was 32.8%.

Consider `COc1ccc2c(OC)c(O)c(=O)oc2c1` [Compared compound 3, 3-hydroxy-4,7-dimethoxy-2H-1-benzopyran-2-one, reference compound], for which the “Inhibition (%) … compared compounds” value in experiment [1] is 30.6%.

As for `CCCCCCCCCCOc1ccc2c(OC)c(O)c(=O)oc2c1` [Compared compound 4, 3-hydroxy-4-methoxy-7-decyloxy-2H-1-benzopyran-2-one, reference compound], in experiment [1], the “Inhibition (%) … compared compounds” value worked out at 26.4%.

On to `C[C@]12C=CC(=O)C=C1CC[C@@H]1[C@@H]2[C@@H](O)C[C@@]2(C)[C@H]1CC[C@]2(O)C(=O)CO` [Prednisolone, reference compound], for which, in experiment [2] (Mus musculus, po, 24 h, read-out: Inhibition (%) against the increase of ear thickness), the inhibition in vivo at 10 mg/kg is 63.5%.

With `COc1ccc(/C=C/C(=O)Nc2ccccc2C(=O)O)cc1OC` [Tranilast, reference compound], the inhibition in vivo at 100 mg/kg in experiment [1] (setting [4]) is 56.2%; in experiment [2] (setting [5]), 11.5%. The “inhibition of delayed type hypersensitization” value in experiment [2] (100 mg/kg oral, in words) is “did not inhibit delayed type hypersensitization”.

`COc1ccc2c(OCc3ccccc3)c(O[C@@H]3O[C@H](COC(C)=O)[C@@H](OC(C)=O)[C@H](OC(C)=O)[C@H]3OC(C)=O)c(=O)oc2c1` [compound 3, 7-methoxy-4-benzyloxy-3-(tetra-O-acetyl-β-D-glucopyranosyloxy)-2H-1-benzopyran-2-one]: the values for the inhibition in vivo at 100 mg/kg in experiment [1] (setting [4]), in experiment [2] (setting [5]) and in experiment [3] were 43.5%, 40.5% and 40%, respectively.

In the case of `COc1ccc2c(O)c(O[C@@H]3O[C@H](COC(C)=O)[C@@H](OC(C)=O)[C@H](OC(C)=O)[C@H]3OC(C)=O)c(=O)oc2c1` [compound 4, 7-methoxy-4-hydroxy-3-(tetra-O-acety-β-D-glucopyranosyloxy)-2H-1-benzopyran-2-one], the inhibition in vivo at 100 mg/kg in experiment [1] (setting [4]) amounted to 40.2%; in experiment [2] (setting [5]), 46.3%; in experiment [3], 48.3%.

`COc1ccc2c(O)c(O[C@@H]3O[C@H](CO)[C@@H](O)[C@H](O)[C@H]3O)c(=O)oc2c1` [compound 5, 7-methoxy-4-hydroxy-3-(β-D-glucopyranosyloxy)-2H-1-benzopyran-2-one]: the inhibition in vivo at 100 mg/kg in experiment [1] (setting [4]) is 48.7%; in experiment [2] (setting [5]), 51.2%; in experiment [3] it was 62%.

For the molecule `COc1ccc2c(OCc3ccccc3)c(O[C@@H]3O[C@H](COC(C)=O)[C@@H](OC(C)=O)[C@H](OC(C)=O)[C@@H]3OC(C)=O)c(=O)oc2c1` [compound 6, 7-methoxy-4-benzyloxy-3-(tetra-O-acetyl-β-D-mannopyranosyloxy)-2H-1-benzopyran-2-one], the “Inhibition (%) of PCA reaction” value in experiment [1] (setting [4]) turned out to be 42.3%. Also, in experiment [2] (100 mg/kg oral, ear thickness 24 hours after challenge, Table 6), the “Inhibition (%) against the increase of ear thickness” value was determined as 41.9%. Moreover, the “Inhibition (%) of the airway resistance” value in experiment [3] is reported as 38.5%.

In the case of `COc1ccc2c(OCc3ccccc3)c(O[C@@H]3O[C@H](COC(C)=O)[C@H](OC(C)=O)[C@H](OC(C)=O)[C@H]3OC(C)=O)c(=O)oc2c1` [compound 7, 7-methoxy-4-benzyloxy-3-(tetra-O-acetyl-β-D-galactopyranosyloxy)-2H-1-benzopyran-2-one], the inhibition in vivo at 100 mg/kg in experiment [1] (setting [4]) was determined as 41.1%; in experiment [2] (setting [5]) it was 40.3%; in experiment [3], 43.7%.

Take `COc1ccc2c(O)c(O[C@H]3O[C@H](COC(C)=O)[C@@H](OC(C)=O)[C@H](OC(C)=O)[C@@H]3OC(C)=O)c(=O)oc2c1` [compound 8, 7-methoxy-4-hydroxy-3-(tetra-O-acetyl-α-D-mannopyranosyloxy)-2H-1-benzopyran-2-one]: the inhibition in vivo at 100 mg/kg was found to be 45.2% in experiment [1] (setting [4]), 45.3% in experiment [2] (setting [5]) and 46.7% in experiment [3].

In the case of `COc1ccc2c(O)c(O[C@@H]3O[C@H](COC(C)=O)[C@H](OC(C)=O)[C@H](OC(C)=O)[C@H]3OC(C)=O)c(=O)oc2c1` [compound 9, 7-methoxy-4-hydroxy-3-(tetra-O-acetyl-β-D-galactopyranosyloxy)-2H-1-benzopyran-2-one], the values for the inhibition in vivo at 100 mg/kg in experiment [1] (setting [4]), in experiment [2] (setting [5]) and in experiment [3] were 51.3%, 50.1% and 58.4%, respectively.

Regarding `COc1ccc2c(O)c(O[C@H]3O[C@H](CO)[C@@H](O)[C@H](O)[C@@H]3O)c(=O)oc2c1` [compound 10, 7-methoxy-4-hydroxy-3-(α-D-mannopyranosyloxy)-2H-1-benzopyran-2-one], the inhibition in vivo at 100 mg/kg worked out at 50.3% in experiment [1] (setting [4]), 47.5% in experiment [2] (setting [5]) and 49% in experiment [3].

Regarding `COc1ccc2c(O)c(O[C@@H]3O[C@H](CO)[C@H](O)[C@H](O)[C@H]3O)c(=O)oc2c1` [compound 11, 7-methoxy-4-hydroxy-3-(β-D-galactopyranosyloxy)-2H-1-benzopyran-2-one], the inhibition in vivo at 100 mg/kg came out at 52.1% in experiment [1] (setting [4]), 53.3% in experiment [2] (setting [5]) and 63.3% in experiment [3].

For `CC(=O)Oc1ccc2c(OCc3ccccc3)c(O[C@@H]3O[C@H](COCc4ccccc4)[C@@H](OCc4ccccc4)[C@H](OCc4ccccc4)[C@H]3OCc3ccccc3)c(=O)oc2c1` [compound 12, 4-benzyloxy-7-acetoxy-3-(tetra-O-benzyl-β-D-glucopyranosyloxy)-2H-1-benzopyran-2-one], the values for the inhibition in vivo at 100 mg/kg in experiment [1] (setting [4]), in experiment [2] (setting [5]) and in experiment [3] were 41.3%, 40.8% and 39.2%, respectively.

On to `CC(=O)Oc1ccc2c(O)c(O[C@@H]3O[C@H](CO)[C@@H](O)[C@H](O)[C@H]3O)c(=O)oc2c1` [compound 13, 7-acetoxy-4-hydroxy-3-(β-D-glucopyranosyloxy)-2H-1-benzopyran-2-one], for which the values for the inhibition in vivo at 100 mg/kg in experiment [1] (setting [4]), in experiment [2] (setting [5]) and in experiment [3] were 58.7%, 50.4% and 57.7%, respectively.

Regarding `O=c1oc2cc(O)ccc2c(O)c1O[C@@H]1O[C@H](CO)[C@@H](O)[C@H](O)[C@H]1O` [compound 14], the inhibition in vivo at 100 mg/kg in experiment [1] (setting [4]) amounted to 50.2%; in experiment [2] (setting [5]), 47.5%; in experiment [3], 52.3%.

On to `CCCCOc1ccc2c(O)c(O[C@@H]3O[C@H](CO)[C@@H](O)[C@H](O)[C@H]3O)c(=O)oc2c1` [compound 15], for which the inhibition in vivo at 100 mg/kg amounted to 60.4% in experiment [1] (setting [4]), 58.5% in experiment [2] (setting [5]) and 73.6% in experiment [3].
